Consider twelve compounds from ChEMBL document CHEMBL3611982, “Lowering the pKa of a bisimidazoline lead with halogen atoms results in improved activity and selectivity against Trypanosoma brucei in vitro” (Eur J Med Chem, 2015).

Data set [1] relates to Trypanosoma brucei brucei. Briefly: Trypanocidal activity against wild type bloodstream form of Trypanosoma brucei brucei s427 trypomastigotes after 70 hrs by Alamar Blue assay. In kind it is functional, organism-based. The note with it: s427, 70 h.
Data set [2] concerns Trypanosoma brucei brucei. Briefly: Trypanocidal activity against diminazene/pentamidine/melaminophenyl arsenicals-resistant bloodstream form of Trypanosoma brucei brucei B48 trypomastigotes after 70 hrs by Alamar Blue assay. The format is functional, organism-based. The following applies: B48, 70 h.
Data set [3] relates to Trypanosoma brucei brucei. Briefly: Resistant factor, ratio of EC50 for diminazene/pentamidine/melaminophenyl arsenicals-resistant Trypanosoma brucei brucei B48 to EC50 for wild type bloodstream form of Trypanosoma brucei brucei s427 trypomastigotes. In kind it is functional.
Data set [4] is described as follows: Cytotoxicity against HEK293T cells after 30 hrs by Alamar Blue assay. The format is cell-based, HEK-293T. The following applies: human.
Data set [5] is described as follows: Selectivity index, ratio of CC50 for HEK293T cells to EC50 for wild type bloodstream form of Trypanosoma brucei s427 trypomastigotes. The format is toxicity, cell-based, HEK-293T. The note with it: human, read-out: Ratio CC50/EC50.
In data set [6] the test system is Trypanosoma brucei brucei. Briefly: Trypanocidal activity against Trypanosoma brucei brucei s427 at >5 fold EC50 measured within 6 hrs by propidium iodide staining-based fluorimetric analysis. The format is functional, organism-based.
The subject of data set [7] is Trypanosoma brucei brucei. Briefly: Trypanocidal activity against Trypanosoma brucei brucei s427 measured within 6 hrs by propidium iodide staining-based fluorimetric analysis. In kind it is functional, organism-based.
In data set [8] the test system is Trypanosoma brucei brucei. In words: Trypanocidal activity against Trypanosoma brucei brucei s427 at 5 uM measured over 1 hr by propidium iodide staining-based fluorimetric analysis. The format is functional, organism-based.
The subject of data set [9] is Trypanosoma brucei brucei. In words: Trypanocidal activity against Trypanosoma brucei brucei s427 at 2.5 uM measured over 2 hrs by propidium iodide staining-based fluorimetric analysis. In kind it is functional, organism-based.

The source made the active and inactive calls. No cut-off for these calls is given here.

With `O=C(Nc1ccc(NC2=NCCN2)cc1)c1ccc(NC2=NCCN2)cc1`, the EC50 in [1] is 830 nM; in data set [2] it was 870 nM. Besides, the “Ratio EC50” value in data set [3] stood at 1.1. In addition, in [4], the CC50 at 30 h was over 200000 nM. The selectivity ratio in data set [5] is over 240. In data set [6], the outcome was Active. The Activity entry in data set [7] was “Dose-dependent effect”.

With `O=C(Nc1ccc(N=C2NCCN2)cc1)c1ccc(N=C2NCCN2)c(Cl)c1`, the EC50 in data set [1] is 970 nM; in data set [2], 830 nM. The “Ratio EC50” value in [3] is given as 0.9. In data set [4], the CC50 at 30 h is over 200000 nM. Also, the selectivity ratio in data set [5] is over 200.

Turning to `O=C(Nc1ccc(N=C2NCCN2)cc1F)c1ccc(N=C2NCCN2)cc1`, the EC50 in data set [1] came out at 1580 nM; in [2] it was 2160 nM. For the same compound, the “Ratio EC50” value in [3] is listed as 1.4. The same compound returned a CC50 at 30 h in [4] of over 200000 nM. For the same compound, in data set [5], the selectivity ratio is over 120.

Regarding `O=C(Nc1ccc(N=C2NCCN2)cc1)c1ccc(N=C2NCCN2)cc1Cl`, the EC50 in data set [1] amounted to 1320 nM; in [2] it was 2440 nM. Moreover, the “Ratio EC50” value in data set [3] came out at 1.8. For the same compound, the CC50 at 30 h in [4] is over 200000 nM. Also, the selectivity ratio in data set [5] was over 150.

For the compound `O=C(Nc1ccc(N=C2NCCN2)cn1)c1ccc(N=C2NCCN2)cc1`, the values for the EC50 in data set [1] and in data set [2] were 1040 nM and 3230 nM, respectively. Moreover, the “Ratio EC50” value in [3] came out at 3.1. For the same compound, the CC50 at 30 h in data set [4] was over 200000 nM. Further, in data set [5], the selectivity ratio is over 190.

As for `O=C(Nc1ccc(N=C2NCCN2)c(Cl)c1)c1ccc(N=C2NCCN2)cc1`, the figures for the EC50 in data set [1] and in [2] were 220 nM and 360 nM, respectively. For the same compound, the “Ratio EC50” value in data set [3] came to 1.7. In data set [4], the CC50 at 30 h was over 200000 nM. For the same compound, in data set [5], the selectivity ratio was over 900. Besides, in data set [8], the outcome was Active.

Turning to `O=C(Nc1ccc(N=C2NCCN2)cc1)c1ccc(N=C2NCCN2)c(F)c1`, the EC50 is 530 nM in data set [1] and 690 nM in data set [2]. Moreover, in data set [3], the “Ratio EC50” value was 1.3. In addition, the CC50 at 30 h in data set [4] was over 200000 nM. In addition, the selectivity ratio in [5] is over 370.

Regarding `N=C(N)c1ccc(OCCCCCOc2ccc(C(=N)N)cc2)cc1` [PENTAMIDINE], the EC50 in data set [1] came out at 0.11 nM; in data set [2], 550 nM. In data set [3], the “Ratio EC50” value was 3349.

Take `O=C(Nc1ccc(N=C2NCCN2)c(F)c1)c1ccc(N=C2NCCN2)cc1`: the EC50 came out at 580 nM in [1] and 790 nM in [2]. Moreover, the “Ratio EC50” value in data set [3] came to 1.4. Further, the CC50 at 30 h in data set [4] was over 200000 nM. Besides, the selectivity ratio in [5] was over 340.

`N=C(N)c1ccc(/N=N/Nc2ccc(C(=N)N)cc2)cc1` [DIMINAZENE]: the EC50 in data set [1] amounted to 12 nM; in [2], 780 nM. For the same compound, in [3], the “Ratio EC50” value amounted to 42.

Turning to `O=C(Nc1ccc(N=C2NCCN2)cc1)c1ccc(N=C2NCCN2)cc1F`, the EC50 came out at 470 nM in data set [1] and 650 nM in [2]. The “Ratio EC50” value in data set [3] was found to be 1.4. The compound further gave a CC50 at 30 h in data set [4] of over 200000 nM. Also, in data set [5], the selectivity ratio was over 420. Further, the outcome in data set [8] and in data set [9] was Active.

As to `O=C(Nc1ccc(N=C2NCCN2)cc1Cl)c1ccc(N=C2NCCN2)cc1`, the EC50 was found to be 4220 nM in data set [1] and 4350 nM in data set [2]. Besides, in data set [3], the “Ratio EC50” value was determined as 1. Moreover, the CC50 at 30 h in data set [4] was over 200000 nM. Besides, in data set [5], the selectivity ratio is over 45.
